In PMC10384408, “Anticancer Tungstenocenes with a Diverse Set of (O,O–), (O,S–) and (O,N–) Chelates—A Detailed Biological Study Using an Improved Evaluation via 3D Spheroid Models” (Pharmaceutics, 2023):
Where “and” joins values, the source holds several entries; their conditions need not be identical. Equal values may be shown once.

Tests used:
[1] = tested on: SW480 (colon carcinoma) cells; experiment: MTT cytotoxicity assay, SW480 monolayer; assay type: cell-based, human; conditions: exposure time 96 h, mean ± SD
Protocol: (§1) CH1/PA-1 (ovarian teratocarcinoma), SW480 (colon carcinoma) and A549 (non-small cell lung cancer) cells were maintained as described in the reference. IMR-90 human fetal lung fibroblasts (from the European Collection of Authenticated Cell Cultures, Porton Down, Salisbury, UK) were cultured in Stable Cell^TM DMEM/F12 supplemented with 0.01 mg/mL human recombinant insulin (both purchased from Sigma-Aldrich) and 10% fetal bovine serum (FBS, BioWest, Nuaillé, France). Human colon carcinoma cell lines HCT116 and HT29 (both kindly provided by the Institute of Cancer Research, Department of Medicine I, Medical University of Vienna, Austria) were cultured in McCoy’s 5a medium supplemented with 4 mM L-glutamine (both purchased from Sigma-Aldrich) and 10% FBS. MCF-7 human breast adenocarcinoma cells (kindly provided by M. Ogris, Department of Pharmaceutical Sciences, University of Vienna, Austria) were maintained in DMEM (high glucose) supplemented with 4 mM L-glutamine, 0.1 mg/mL human insulin (all purchased from Sigma-Aldrich) and 10% FBS. All cell lines were grown as monolayers in 75 cm^2 culture flasks (CytoOne, Starlab, Hamburg, Germany) at 37 °C in a humidified atmosphere containing 5% CO2.
(§2) Exponentially growing cells were plated into 96-well microculture plates (CytoOne, tissue culture treated, Starlab, Hamburg, Germany) in densities of 1 × 10^3 CH1/PA-1, 2 × 10^3 SW480, 3 × 10^3 A549 and 7 × 10^3 IMR-90 cells per well (each in 100 µL). After a 24 h preincubation, drugs were added in serial dilution to give a final volume of 200 µL/well and exposed for 96 h. At the end of the exposure, the drug solutions were replaced by 100 µL RPMI 1640/MTT mixture (7:1 ratio). MTT (3-(4,5-dimethylthiazol-2-yl)-2,5-diphenyl-2H-tetrazolium bromide), (Acros Organics, Geel, Belgium) solution was prepared in phosphate-buffered saline (5 mg/mL) and mixed with RPMI1640 medium supplemented with 4 mM L-glutamine (both from Sigma-Aldrich) and 10% FBS. After 4 h incubation, the formazan crystals were solubilized in 150 µL of DMSO per well. Absorbance was measured at 550 nm (and at 690 nm as a reference) with a microplate reader (ELx808, BioTek, Winoosky, VT, USA) and Gen5^TM 3.08 software (BioTek). The 50% inhibitory concentrations (IC50) relative to untreated controls were interpolated from concentration-effect curves. At least three biologically and technically independent experiments were performed.

[2] = tested on: HCT116 cells; experiment: Annexin V-FITC/PI apoptosis assay, HCT116; assay type: cell-based, human; conditions: HCT116, 24 h; for ∑apoptotic cells [%]: sum of early and late
[3] = tested on: MCF-7 cells; experiment: Resazurin assay, MCF-7 2D monolayer; assay type: cell-based, human; conditions: 96 h
Protocol: as §1
(§3) For the resazurin assay in monolayer cultures, cells were seeded into 96-well microculture plates (CytoOne, tissue culture treated, Starlab, Hamburg, Germany) in densities of 2 × 10^3 HCT116, 2 × 10^3 HT29 and 4 × 10^3 MCF-7 cells per well (each in 100 µL). For tests in 3D cultures, spheroids were grown as described above. After 24 h (for monolayers) or 4 days (for spheroids) the test compounds in the appropriate medium were added in serial dilution to the plates to obtain a total volume of 200 µL/well. Wells without cells, containing medium and resazurin (Alfa Aesar, Thermo Fisher, Kandel, Germany) solution were used as blanks. After 96 h exposure 20 µL of the resazurin solution (440 µM) were added to each well, followed by a 4 h (2D) or 12 h (3D) incubation period. Resorufin fluorescence was quantified at 530 nm (and a reference wavelength of 620 nm) by using a microplate reader (Synergy HT, BioTek) with Gen5^TM 3.10 software (BioTek).

[4] = tested on: MCF-7 cells; experiment: Annexin V-FITC/PI apoptosis assay, MCF-7; conditions: MCF-7, 24 h; for ∑apoptotic cells [%]: sum of early and late
[5] = tested on: MCF-7 multicellular tumor spheroids; experiment: Resazurin assay, MCF-7 3D spheroids; assay type: cell-based, human; conditions: 96 h; for IC50: spheroids
Protocol: as §1
(§4) For growing multicellular tumor spheroids, 400 HCT116, 400 HT29 or 800 MCF-7 cells per well were plated into round-bottom ultra-low attachment 96-well plates (Corning, Glendale, AZ, USA) in the media described above and incubated at 37 °C for 96 h. Spheroids were treated with 10 µM of the two most cytotoxic compounds 3 and 4 for another 96 h. The diameters of the spheroids were measured with Cell^F software under a CKX41 Olympus microscope before treatment and in constant daily intervals over the 96 h treatment period. For statistical analysis the t-test with Welsh’s correction was implemented in GraphPad Prism software (Version 6.01).
as §3

[6] = tested on: CH1/PA-1 (ovarian teratocarcinoma) cells; experiment: MTT cytotoxicity assay, CH1/PA-1 monolayer; assay type: cell-based, human; conditions: exposure time 96 h, mean ± SD
Protocol: as §1, §2

[7] = Solubility in PBS (1% DMSO); assay type: physicochemical
Protocol: Stock solutions in DMSO of compounds 1–10 were utilized to determine the solubility in PBS by adding 1 vol% of the stock solution to a suitable amount of PBS. […] UV/Vis data were recorded on a Perkin Elmer Lambda 650 UV/Vis Spectrophotometer with a Peltier element for temperature control.

[8] = tested on: HCT116 multicellular tumor spheroids; experiment: Resazurin assay, HCT116 3D spheroids; assay type: cell-based, human; conditions: 96 h; for IC50: spheroids
Protocol: as §1, §4, §3

[9] = tested on: HCT116 cells; experiment: Resazurin assay, HCT116 2D monolayer; assay type: cell-based, human; conditions: 96 h
Protocol: as §1, §3

Cc1occc(=S)c1[O-].F[P-](F)(F)(F)(F)F.[W+4].c1cc[cH-]c1.c1cc[cH-]c1 [Compound 2, Bis(η^5-cyclopentadienyl)[2-methyl-3-(oxo-κO)-4-(1H)-pyran-4-thionato-κS]tungsten(IV) hexafluorophosphate]
IC50 [1]: 36 ± 7 µM | early apoptotic cells [%] AV+ / PI- ([2]; 200 µM): 7.2 ± 1.9% | late apoptotic cells [%] AV+ / PI+ ([2]; 200 µM): 27.1 ± 17.6% | necrotic cells [%] AV- / PI+ ([2]; 200 µM): 2.2 ± 0.2% | viable cells [%] AV- / PI- ([2]; 200 µM): 63.5 ± 18.6% | IC50 [3]: 66 ± 12 µM | early apoptotic cells [%] AV+ / PI- ([4]; 200 µM): 7.4 ± 2.7% | late apoptotic cells [%] AV+ / PI+ ([4]; 200 µM): 22.7 ± 4.5% | necrotic cells [%] AV- / PI+ ([4]; 200 µM): 14.9 ± 8.3% | viable cells [%] AV- / PI- ([4]; 200 µM): 55.1 ± 10.1% | ratio 3D/2D of IC50 values, MCF-7 [5]: > 3.0 | IC50 [5]: > 200 µM | IC50 [6]: 24 ± 3 µM | Solubility in PBS (1% DMSO) [7]: 250 µg/mL | ratio 3D/2D of IC50 values, HCT116 [8]: 1.6 | IC50 [8]: 158 ± 28 µM | IC50 [9]: 98 ± 12 µM

F[P-](F)(F)(F)(F)F.O=c1c([O-])c(-c2ccc(Cl)cc2)oc2ccccc12.[W+4].c1cc[cH-]c1.c1cc[cH-]c1 [Compound 3, Bis(η^5-cyclopentadienyl)[2-(4-chlorophenyl)-3-(oxo-κO)-4(H)-chromen-4-oato-κO]tungsten(IV) hexafluorophosphate]
IC50 [1]: 5.4 ± 1.1 µM | early apoptotic cells [%] AV+ / PI- ([2]; 2 µM): 4.6 ± 1.7% | late apoptotic cells [%] AV+ / PI+ ([2]; 2 µM): 13.5 ± 0.6% | necrotic cells [%] AV- / PI+ ([2]; 2 µM): 4.3 ± 0.7% | viable cells [%] AV- / PI- ([2]; 2 µM): 77.7 ± 1.6% | ∑apoptotic cells [%] ([2]; 2 µM): 18.1% | early apoptotic cells [%] AV+ / PI- ([2]; 20 µM): 5.0 ± 0.9% | late apoptotic cells [%] AV+ / PI+ ([2]; 20 µM): 12.1 ± 2.9% | necrotic cells [%] AV- / PI+ ([2]; 20 µM): 2.5 ± 0.6% | viable cells [%] AV- / PI- ([2]; 20 µM): 80.4 ± 2.6% | ∑apoptotic cells [%] ([2]; 20 µM): 17.1% | early apoptotic cells [%] AV+ / PI- ([2]; 100 µM): 3.3 ± 1.1% | late apoptotic cells [%] AV+ / PI+ ([2]; 100 µM): 75.5 ± 5.6% | necrotic cells [%] AV- / PI+ ([2]; 100 µM): 12.8 ± 0.2% | viable cells [%] AV- / PI- ([2]; 100 µM): 8.6 ± 4.3% | ∑apoptotic cells [%] ([2]; 100 µM): 78.8% | early apoptotic cells [%] AV+ / PI- ([2]; 200 µM): 0.0 ± 0.0% | late apoptotic cells [%] AV+ / PI+ ([2]; 200 µM): 94.1 ± 4.8% | necrotic cells [%] AV- / PI+ ([2]; 200 µM): 5.5 ± 4.9% | viable cells [%] AV- / PI- ([2]; 200 µM): 0.4 ± 0.3% | IC50 [3]: 6.5 ± 1.8 µM | early apoptotic cells [%] AV+ / PI- ([4]; 2 µM): 1.4 ± 0.5% | late apoptotic cells [%] AV+ / PI+ ([4]; 2 µM): 4.3 ± 1.5% | necrotic cells [%] AV- / PI+ ([4]; 2 µM): 2.5 ± 0.6% | viable cells [%] AV- / PI- ([4]; 2 µM): 91.8 ± 1.9% | ∑apoptotic cells [%] ([4]; 2 µM): 5.6% | early apoptotic cells [%] AV+ / PI- ([4]; 10 µM): 1.4 ± 0.3% | late apoptotic cells [%] AV+ / PI+ ([4]; 10 µM): 7.7± 4.4% | necrotic cells [%] AV- / PI+ ([4]; 10 µM): 4.1 ± 1.8% | viable cells [%] AV- / PI- ([4]; 10 µM): 86.9 ± 5.9% | ∑apoptotic cells [%] ([4]; 10 µM): 9.1% | early apoptotic cells [%] AV+ / PI- ([4]; 20 µM): 1.5 ± 0.6% | late apoptotic cells [%] AV+ / PI+ ([4]; 20 µM): 11.4 ± 0.7% | necrotic cells [%] AV- / PI+ ([4]; 20 µM): 8.7 ± 0.3% | viable cells [%] AV- / PI- ([4]; 20 µM): 78.5 ± 1.0% | ∑apoptotic cells [%] ([4]; 20 µM): 12.9% | early apoptotic cells [%] AV+ / PI- ([4]; 50 µM): 1.3 ± 0.5% | late apoptotic cells [%] AV+ / PI+ ([4]; 50 µM): 16.2 ± 2.5% | necrotic cells [%] AV- / PI+ ([4]; 50 µM): 25 ± 0.9% | viable cells [%] AV- / PI- ([4]; 50 µM): 57.7 ± 2.2% | ratio 3D/2D of IC50 values, MCF-7 [5]: 6.8 and 7.0 | IC50 [5]: 44 ± 1 µM | IC50 [6]: 2.7 ± 0.4 µM | Solubility in PBS (1% DMSO) [7]: 30 µg/mL | ratio 3D/2D of IC50 values, HCT116 [8]: 2.3 | IC50 [8]: 21 ± 4 µM | IC50 [9]: 9.2 ± 1.4 µM
